The source of these data is US20180311342A1, “IMMUNOSTIMULATING AGENT” (AJINOMOTO CO., INC., priority 2017, published 2018).

Type in all cases: in vivo, BALB/c mice
The subject of experiment [1] is anti-OVA-specific IgG1 subclass antibody. The experiment in a line: Adjuvant activity test: anti-OVA-specific IgG1 subclass antibody in serum of OVA-immunized mice (ELISA). Particulars: after primary immunization, serum 2 weeks later; OVA 5 μg + compound 0.256 μmol in 5% αCD-added saline (Addavax mixed with saline at 1:1), dorsal-subcutaneous; compared to OVA single administration group.

Experiment [2] has as its system anti-OVA-specific IgG1 and IgG2a subclass antibody production. The experiment in a line: Evaluation test of adjuvant activity (overall conclusion from anti-OVA IgG1 and IgG2a production). To be noted: compound 0.256 μmol in 5% αCD-added saline with OVA 5 μg, dorsal-subcutaneous. An outline of the steps:
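Female BALB/c mice (8 weeks, N=6) immunized dorsal-subcutaneously with OVA 5 μg alone or plus 0.256 μmol compound in 5% α-cyclodextrin saline (Addavax™ as positive control), boosted at 2 weeks. Serum taken 2 weeks after boost; anti-OVA IgG1 and IgG2a quantified by OVA-coated ELISA against standard curves (OD 450 nm).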

Experiment [3] deals with anti-OVA-specific IgG2a subclass antibody. The experiment in a line: Adjuvant activity test: anti-OVA-specific IgG2a subclass antibody in serum of OVA-immunized mice (ELISA). To be noted: after primary immunization, serum 2 weeks later; OVA 5 μg + compound 0.256 μmol in 5% αCD-added saline (Addavax mixed with saline at 1:1), dorsal-subcutaneous; compared to OVA single administration group. In general terms: ELISA stands for enzyme-linked immunosorbent assay.

[4] abbreviates: conclusion from IgG1/IgG2a after primary immunization.
Setting [5] is: conclusion from IgG1/IgG2a after secondary immunization.

Where a name gives a salt, the structure may show the parent alone.

As to `CCCCCCCCCCCCCCCCCCCCCC(=O)N[C@@H](CC(C)C)C(=O)NCCCCCCCCCCCC` [SZ197, N-[(1S)-1-(dodecylcarbamoyl)-3-methyl-butyl]docosanamide], the “anti-OVA-specific IgG1 subclass antibody production” value in experiment [1] is on record as “tended to increase”. The adjuvant activity entry in experiment [2] (setting [4]) and in experiment [2] (setting [5]) was “have an adjuvant activity” each time. The “anti-OVA-specific IgG2a subclass antibody production” value in experiment [3] is “tended to increase”.
In the case of `CCCCCCCCCCCCCCCCCCCCCC(=O)N[C@@H](CC(C)C)C(=O)NCCCCCCCC` [SZ198, N-[(1S)-3-methyl-1-(octylcarbamoyl)butyl]docosanamide], the “anti-OVA-specific IgG1 subclass antibody production” value in experiment [1] is “tended to increase”. Moreover, the adjuvant activity result in experiment [2] (setting [4]) and in experiment [2] (setting [5]) was “have an adjuvant activity” throughout. Besides, in experiment [3], the “anti-OVA-specific IgG2a subclass antibody production” value is “tended to increase”.
Consider `CCCCCCCCCCCCCCCC(=O)N[C@@H](CC(C)C)C(=O)NCCCCCCCC` [SZ199, N-[(1S)-3-methyl-1-(octylcarbamoyl)butyl]hexadecanamide], for which the “anti-OVA-specific IgG1 subclass antibody production” value in experiment [1] was “significant enhancement”. The adjuvant activity entry in experiment [2] (setting [4]) and in experiment [2] (setting [5]) was “have an adjuvant activity” throughout. For the same compound, in experiment [3], the “anti-OVA-specific IgG2a subclass antibody production” value is listed as “significant enhancement”.
Turning to `CCCCCCCCCCCCCCCCNC(=O)N[C@@H](CC(C)C)C(=O)NCCCCCCCC` [SZ201, (2S)-2-(hexadecylcarbamoylamino)-4-methyl-N-octyl-pentanamide], the “anti-OVA-specific IgG1 subclass antibody production” value in experiment [1] was “tended to increase”. Besides, the adjuvant activity result in experiment [2] (setting [4]) and in experiment [2] (setting [5]) was “have an adjuvant activity” each time. Moreover, in experiment [3], the “anti-OVA-specific IgG2a subclass antibody production” value is listed as “tended to increase”.
As to `CCCCCCCCCCCCCCCCOC(=O)N[C@@H](CC(C)C)C(=O)NCCCCCCCC` [SZ203, hexadecyl N-[(1S)-3-methyl-1-(octylcarbamoyl)butyl]carbamate], the “anti-OVA-specific IgG1 subclass antibody production” value in experiment [1] is “tended to increase”. The adjuvant activity entry in experiment [2] (setting [4]) and in experiment [2] (setting [5]) was “have an adjuvant activity” in each case. In experiment [3], the “anti-OVA-specific IgG2a subclass antibody production” value is listed as “Significant enhancement”.
With `CCCCCCCCCCCCCCCCCC(=O)NCC(C)(C)C(=O)NCCCCCCCCCCCC` [SZ204, N-[3-(dodecylamino)-2,2-dimethyl-3-oxo-propyl]octadecanamide], the “anti-OVA-specific IgG1 subclass antibody production” value in experiment [1] is “tended to increase”. In addition, the adjuvant activity entry in experiment [2] (setting [4]) and in experiment [2] (setting [5]) was “have an adjuvant activity” in each case. Moreover, the “anti-OVA-specific IgG2a subclass antibody production” value in experiment [3] was “tended to increase”.
With `CCCCCCCCCCCCCCCCCC(=O)N[C@@H](CCCCNC(=N)N)C(=O)NCCCCCCCCCCCC.Cl` [SZ205, N-[(1S)-1-(dodecylcarbamoyl)-5-guanidino-pentyl]octadecanamide hydrochloride], the “anti-OVA-specific IgG1 subclass antibody production” value in experiment [1] was “significant enhancement”. The adjuvant activity entry in experiment [2] (setting [4]) and in experiment [2] (setting [5]) was “have an adjuvant activity” throughout. Further, the “anti-OVA-specific IgG2a subclass antibody production” value in experiment [3] is listed as “significant enhancement”.
For the compound `CCCCCCCCCCCCCCCCCC(=O)N[C@@H](CCCCNC(=N)N)C(=O)NCCCCCC.Cl` [SZ206, N-[(1S)-1-(hexylcarbamoyl)-5-guanidino-pentyl]octadecanamide hydrochloride], the “anti-OVA-specific IgG1 subclass antibody production” value in experiment [1] is on record as “significant enhancement”. Further, the adjuvant activity result in experiment [2] (setting [4]) and in experiment [2] (setting [5]) was “have an adjuvant activity” throughout. Besides, the “anti-OVA-specific IgG2a subclass antibody production” value in experiment [3] is “significant enhancement”.
For `CCCCCCCCCCCCNC(=O)[C@H](CCCNC(=N)N)N(CCCCCCC)CCCCCCC` [SZ207, (2S)-2-(diheptylamino)-N-dodecyl-5-guanidino-pentanamide dihydrochloride], in experiment [1], the “anti-OVA-specific IgG1 subclass antibody production” value is reported as “tended to increase”. Moreover, the adjuvant activity result in experiment [2] (setting [4]) and in experiment [2] (setting [5]) was “have an adjuvant activity” throughout. The “anti-OVA-specific IgG2a subclass antibody production” value in experiment [3] is recorded as “tended to increase”.
Consider `CCCCCCCCCCCCCCCCCCCCCC(=O)NCCc1ccncc1.Cl` [SZ209, N-[2-(4-pyridyl)ethyl]docosanamide hydrochloride], for which the “anti-OVA-specific IgG1 subclass antibody production” value in experiment [1] is given as “tended to increase”. Moreover, the adjuvant activity result in experiment [2] (setting [4]) and in experiment [2] (setting [5]) was “have an adjuvant activity” each time. Further, the “anti-OVA-specific IgG2a subclass antibody production” value in experiment [3] was “tended to increase”.
As to `CCCCCCCCCCCCCCCCNC(=O)N[C@@H](CCCNC(=N)N)C(=O)NCCCCCCCC.Cl` [SZ210, (2S)-5-guanidino-2-(hexadecylcarbamoylamino)-N-octyl-pentanamide hydrochloride], the “anti-OVA-specific IgG1 subclass antibody production” value in experiment [1] is given as “significant enhancement”. Besides, the adjuvant activity result in experiment [2] (setting [4]) and in experiment [2] (setting [5]) was “have an adjuvant activity” in each case. The “anti-OVA-specific IgG2a subclass antibody production” value in experiment [3] is “significant enhancement”.
With `CCCCCCCCCCCCCCCCCCNC(=O)N[C@@H](CCCNC(=N)N)C(=O)NCCCCCCCCCCCC.Cl` [SZ211, (2S)—N-dodecyl-5-guanidino-2-(octadecylcarbamoylamino)pentanamide hydrochloride], the “anti-OVA-specific IgG1 subclass antibody production” value in experiment [1] is listed as “significant enhancement”. Further, the adjuvant activity result in experiment [2] (setting [4]) and in experiment [2] (setting [5]) was “have an adjuvant activity” in each case. In addition, the “anti-OVA-specific IgG2a subclass antibody production” value in experiment [3] is listed as “significant enhancement”.
With `CCCCCCCCCCCCNC(=O)N[C@@H](CCCNC(=N)N)C(=O)NCCCCCCCCCCCC.Cl` [SZ212, (2S)—N-dodecyl-2-(dodecylcarbamoylamino)-5-guanidino-pentanamide hydrochloride], the “anti-OVA-specific IgG1 subclass antibody production” value in experiment [1] was “significant enhancement”. Further, the adjuvant activity result in experiment [2] (setting [4]) and in experiment [2] (setting [5]) was “have an adjuvant activity” in each case. Moreover, the “anti-OVA-specific IgG2a subclass antibody production” value in experiment [3] was “significant enhancement”.
Regarding `CCCCCCCCCCCCCCCCNC(=O)N[C@@H](CCCCN)C(=O)NCCCCCCCC.Cl` [SZ213, (2S)-6-amino-2-(hexadecylcarbamoylamino)-N-octyl-hexanamide hydrochloride], the “anti-OVA-specific IgG1 subclass antibody production” value in experiment [1] was “a tendency toward increase”. Moreover, the adjuvant activity entry in experiment [2] (setting [4]) and in experiment [2] (setting [5]) was “have an adjuvant activity” in each case. Moreover, the “anti-OVA-specific IgG2a subclass antibody production” value in experiment [3] is given as “significant enhancement”.
As for `CCCCCCCCCCCCCCCCNC(=O)N[C@@H](CCCCN)C(=O)NCCCCCCCCCCCC.Cl` [SZ214, (2S)-6-amino-N-dodecyl-2-(hexadecylcarbamoylamino)hexanamide hydrochloride], in experiment [1], the “anti-OVA-specific IgG1 subclass antibody production” value is recorded as “significant enhancement”. Further, the adjuvant activity result in experiment [2] (setting [4]) and in experiment [2] (setting [5]) was “have an adjuvant activity” each time. Moreover, the “anti-OVA-specific IgG2a subclass antibody production” value in experiment [3] is recorded as “significant enhancement”.
As for `CCCCCCCCCCCCCCCCOC(=O)N[C@@H](CCCNC(=N)N)C(=O)NCCCCCCCC.Cl` [SZ215, hexadecyl N-[(1S)-4-guanidino-1-(octylcarbamoyl)butyl]carbamate hydrochloride], the “anti-OVA-specific IgG1 subclass antibody production” value in experiment [1] was “a tendency toward increase”. Moreover, the adjuvant activity entry in experiment [2] (setting [4]) and in experiment [2] (setting [5]) was “have an adjuvant activity” throughout. For the same compound, the “anti-OVA-specific IgG2a subclass antibody production” value in experiment [3] is “significant enhancement”.
